The values that follow come from US20230181659A1, “PHAGE-MEDIATED DELIVERY OF GENES TO GUT MICROBIOME” (priority 2020, published 2023).

The nature of data set [1]: Carbenicillin bioassay of culture supernatants. As to conditions: co-cultures expressing β-lactamase; 4 hours of growth; detection limit approximately 2.5 μg/ml. As to the method:
Carbenicillin bioassay. Cultures were sampled over time, cells were pelleted at 21,000 g for 1 min, and the supernatant was transferred to a new tube and frozen at −20° C. until all timepoints were collected. The supernatants were thawed and assayed using a Kirby-Bauer disk diffusion test. An overnight culture of the indicator organism (Bacillus subtilis 168) was diluted in saline to an OD600 of 0.1. A cotton swab was dipped into this dilution and spread across LB agar, antibiotic sensitivity disks (Fisher Scientific S70150A) were overlaid using tweezers, and 20 μl of the supernatant was applied to the disk. At the same time, carbenicillin standards were prepared from 1 μg/ml to 100 μg/ml and also applied to discs. Plates were incubated overnight at 37° C. and imaged the following morning.

In data set [2] the test system is Sm^R E. coli MG1655 or W1655 F+. The data set is described as follows: Eradication of sensitive E. coli colonizing the mouse gut by carbenicillin water. In kind it is in vivo. As to the method: (§1) Mouse experiments with E. coli engraftment, antibiotic water, and phage treatment. Animal procedures were approved by the University of California, San Francisco (UCSF) Institutional Animal Care and Use Committee (IACUC), and animal experiments performed were in compliance with ethical regulations. Specific pathogen free female BALB/c mice from the vendor Taconic were used for all mouse experiments. Streptomycin water was prepared by dissolving USP grade streptomycin sulfate (VWR 0382) in autoclaved tap water to a final concentration of 5 mg/ml and passing through 0.45 μm filtration units. Mice were provided streptomycin water for 1 day, followed by oral gavage of 0.2 ml containing approximately 10^9 CFU of streptomycin-resistant E. coli. Mice were kept on streptomycin water thereafter to maintain colonization. For selection with β-lactam antibiotics, USP grade ampicillin sodium salt (Teknova A9510) or USP grade carbenicillin disodium salt (Teknova C2110) was also dissolved in the water to a final concentration of 1 mg/ml; carbenicillin was preferred for its increased stability over ampicillin (Bobrowski, M. & Borowski, E. et al., Microbiology, 68, 263-272 (1971)). Drinking water containing streptomycin was prepared fresh weekly; with the addition of a β-lactam antibiotic, it was prepared fresh every 3-4 days. For phage treatment, filtered phage solutions stored at −80° C. were thawed and used directly for oral gavage. Unfiltered phage solutions were precipitated by diluting approximately 5-fold in PBS, adding 0.2 volumes phage precipitation solution (20% PEG-8000, 2.5 M NaCl), incubating for 15 min on ice, pelleting at 15,000-21,000 g for 15 min at 4° C., resuspending in PBS, centrifuging to pellet insoluble matter, and filtering through 0.45 μm. Heat-inactivated phage were prepared by incubating 1 ml aliquots at 95° C. in a water bath for 30 min. Streptomycin-treated mice colonized with Sm^R E. coli were orally gavaged with 0.2 ml of phage and placed on drinking water containing both streptomycin and carbenicillin.
Enumeration and culture of E. coli from mouse feces. […]

Data set [3] has as its system Sm^R MG1655 E. coli. As to the kind of experiment: Selection of resistant E. coli subpopulation in mouse gut with β-lactam in drinking water. In kind it is in vivo. The following applies: mice on water containing streptomycin and ampicillin; gavaged 99.9% Amp^S / 0.1% Amp^R; within 1-2 days. As to the method: as §1, with “For phage treatment, filtered phage solutions stored at −80° C. were thawed and used directly for oral gavage. Unfiltered phage solutions were precipitated by diluting approximately 5-fold in PBS, adding 0.2 volumes phage precipitation solution (20% PEG-8000, 2.5 M NaCl), incubating for 15 min on ice, pelleting at 15,000-21,000 g for 15 min at 4° C., resuspending in PBS, centrifuging to pellet insoluble matter, and filtering through 0.45 μm. Heat-inactivated phage were prepared by incubating 1 ml aliquots at 95° C. in a water bath for 30 min. Streptomycin-treated mice colonized with Sm^R E. coli were orally gavaged with 0.2 ml of phage and placed on drinking water containing both streptomycin and carbenicillin.” left out

In data set [4] the test system is gut microbiota. As to the kind of experiment: 16S rRNA gene sequencing of streptomycin-treated mice. It counts as in vivo. The following applies: streptomycin water 5 mg/ml. As to the method:
16S rRNA gene sequencing. Mouse fecal pellets were stored at −80° C. DNA was extracted from single pellets using a ZymoBIOMICS 96 MagBead DNA Kit and 16S rRNA gene sequencing was performed using a dual indexing strategy (Gohl, D. M. et al., Nat. Biotechnol. 34, 942-949 (2016)). Briefly, a 22-cycle primary PCR was performed using KAPA HiFi Hot Start DNA polymerase (KAPA KK2502) and V4 515F/806R Nextera primers. The reaction was diluted in UltraPure DNase/RNase-free water (Life Tech 0977-023) and used as template for a 10-cycle secondary (indexing) PCR using sample-specific dual indexing primers. […] The DNA was gel extracted using a MinElute Gel Extraction Kit (Qiagen 28604), quantified by qPCR using a KAPA Library Quantification Kit for Illumina Platforms (KAPA KK4824), and paired-end sequenced on the Illumina MiSeq platform. Data were processed using a 16S rRNA gene analysis pipeline (https://github.com/jbisanz/AmpliconSeq) based on QIIME2 (Bolyen, E. et al., Nat. Biotechnol. 37, 852-857 (2019)) incorporating DADA2 (Callahan, B. J. et al., Nat. Methods, 13, 581-583 (2016).), and analyzed using R packages qiime2R v0.99.23 (https://github.com/jbisanz/qiime2R), phyloseq v1.33.0 (McMurdie, P. J. & Holmes, S., PLoS One, 8, e61217 (2013)), and phylosmith v1.0.4 (Smith, S. D., Journal of Open Source Software 4, 1442 (2019)). […]

Turning to `CC1(C)S[C@@H]2[C@H](NC(=O)C(C(=O)O)c3ccccc3)C(=O)N2[C@H]1C(=O)O` (stereo partly drawn) [carbenicillin], the “carbenicillin in culture supernatants” value in data set [1] is on record as “not detectable”. Further, in data set [2] (all mice, below limit of detection), the “E. coli colonization level over the course of treatment” value is recorded as < 10^2 CFU/g. Besides, in data set [2] (carbenicillin removed on Day 7), the “mice with recolonization when selection was lifted” value is 5/6. The “median E. coli colonization level” value in data set [2] (first day of carbenicillin in water, decreased from 9.6×10^9) is reported as 2.0×10^3 CFU/gram feces.
As for `CC1(C)S[C@@H]2[C@H](NC(=O)[C@H](N)c3ccccc3)C(=O)N2[C@H]1C(=O)O` [ampicillin], in data set [3], the “increase in the percent of Amp^R E. coli in feces” value was 3 orders of magnitude.
For the molecule `[H]/N=C(/N)N[C@H]1[C@H](O)[C@@H](O)[C@H](O[C@@H]2O[C@@H](C)[C@](O)(C=O)[C@H]2O[C@@H]2O[C@@H](CO)[C@H](O)[C@@H](O)[C@@H]2NC)[C@@H](N/C(N)=N\[H])[C@@H]1O` [streptomycin], in data set [4], the “effect on gut microbial community” value is “altered gut microbial community structure while decreasing diversity and colonization level”.
